Measured values from patent US20020115699A1, “Method for treating renal disease” (SmithKline Beecham p.l.c., priority 1994, published 2002).

How the values were obtained:
[1] = tested on: Zucker fatty (fa/fa) rats; experiment: Urinary total protein (Bio-Rad dye-binding assay, 24 h urine) in 9 month Zucker rat study; format: in vivo; conditions: Zucker fatty rats; for URINARY PROTEIN CONCENTRATION: mean ± SEM
Protocol: A second study was performed in Zucker rats over a period of 9 months to investigate the longitudinal effects of the drug on systolic blood pressure and various indices of renal function, two of which are exemplified here. […] A third group of Zucker fatty rats and a further group of lean rats were given diet alone throughout the period of study. After dosing with the test compound, at monthly intervals measurements were made of systolic blood pressure, urinary total protein and urinary N-acetyl β-D-glucosaminidase (NAG) activity. Twenty-four hour urine collections, made in metabolism cages, were aliquoted and frozen at −70° C. until required for assay. Urinary protein concentration was measured using the Bio-Rad protein assay as modified for use in a 96-well microtitre plate. The assay is a dye-binding assay based on the differential colour change of a dye in response to various concentrations of protein (Bradford, Anal. Biochem., 72, 248, 1976). After a period of incubation with Dye Reagent, diluted urine samples are read at an optical density of 595 nm using a Molecular Devices multiplate reader.

[2] = tested on: Zucker fatty (fa/fa) rats; experiment: Urinary N-acetyl β-D-glucosaminidase (NAG) activity in 9 month Zucker rat study; format: in vivo; conditions: for URINARY N-ACETYL-β-D-GLUCOSAMINIDASE ACTIVITY: mean ± SEM
Protocol: A second study was performed in Zucker rats over a period of 9 months to investigate the longitudinal effects of the drug on systolic blood pressure and various indices of renal function, two of which are exemplified here. In one arm of the study, the drug was given in the diet (50 μmole/kg of diet) from aged 6-7 weeks in Zucker fatty (fa/fa) rats, whilst in a second arm of the study, drug treatment as above was delayed until proteinuria had become established after 4 months, indicative of structural damage already present in the kidneys. A third group of Zucker fatty rats and a further group of lean rats were given diet alone throughout the period of study.
After dosing with the test compound, at monthly intervals measurements were made of systolic blood pressure, urinary total protein and urinary N-acetyl β-D-glucosaminidase (NAG) activity.
Twenty-four hour urine collections, made in metabolism cages, were aliquoted and frozen at −70° C. until required for assay.
NAG activity was assayed using a reagent kit on a Hitachi 717 analyser (both suppied by Boehringer Mannheim UK, Lewes). Enzyme activity was measured by monitoring the rate of chlorophenol (570 nm) released from the substrate chlorophenol red-β-D-glucosaminide.
In the tables below, results are given as mean values for the group ±the standard error of the mean. Results have been analysed by one way ANOVA and significant differences from the Zucker fatty rat control group have been indicated by an asterisk.

CN(CCOc1ccc(CC2SC(=O)NC2=O)cc1)c1ccccn1 (centres unmarked) [Test Compound, 5-[4-[2-(N-methyl-N-(2-pyridyl)amino)ethoxy]benzyl]thiazolidine-2,4-dione]
URINARY PROTEIN CONCENTRATION ([1]; 50 μmol/kg of diet from age 6-7 weeks (prior to renal complications), treatment duration 8 months): 2664 ± 370 µg/h
URINARY PROTEIN CONCENTRATION ([1]; 50 μmol/kg of diet from age 6-7 weeks (prior to renal complications), treatment duration 9 months): 3152 ± 515 µg/h
URINARY PROTEIN CONCENTRATION ([1]; 50 μmol/kg of diet started once renal complications established (after 4 months), treatment duration 0 months): 3520 ± 905 µg/h
URINARY PROTEIN CONCENTRATION ([1]; 50 μmol/kg of diet started once renal complications established (after 4 months), treatment duration 1 month): 3690 ± 386 µg/h
URINARY PROTEIN CONCENTRATION ([1]; 50 μmol/kg of diet started once renal complications established (after 4 months), treatment duration 2 months): 5330 ± 967 µg/h
URINARY PROTEIN CONCENTRATION ([1]; 50 μmol/kg of diet started once renal complications established (after 4 months), treatment duration 3 months): 6230 ± 835 µg/h
URINARY PROTEIN CONCENTRATION ([1]; 50 μmol/kg of diet started once renal complications established (after 4 months), treatment duration 4 months): 5380 ± 708 µg/h
URINARY PROTEIN CONCENTRATION ([1]; 50 μmol/kg of diet started once renal complications established (after 4 months), treatment duration 5 months): 7680 ± 825 µg/h
URINARY PROTEIN CONCENTRATION ([1]; 50 μmol/kg of diet started once renal complications established (after 4 months), treatment duration −1 month (before start of drug)): 958 ± 194 µg/h
URINARY PROTEIN CONCENTRATION ([1]; 50 μmol/kg of diet started once renal complications established (after 4 months), treatment duration −2 months (before start of drug)): 457 ± 21 µg/h
URINARY PROTEIN CONCENTRATION ([1]; 50 μmol/kg of diet started once renal complications established (after 4 months), treatment duration −3 months (before start of drug)): 347 ± 32 µg/h
URINARY PROTEIN CONCENTRATION ([1]; 50 μmol/kg of diet started once renal complications established (after 4 months), treatment duration −4 months (before start of drug)): 220 ± 13 µg/h
rate of increase in the urinary protein concentration ([1]; drug treatment commenced after proteinuria had become established): marked reduction
elevation of urinary NAG activity ([2]; Zucker fatty (fa/fa) rats treated from age 6-7 weeks for 9 months via the diet): markedly reduced
URINARY N-ACETYL-β-D-GLUCOSAMINIDASE ACTIVITY ([2]; Zucker fatty rats, 50 μmol/kg of diet from age 6-7 weeks (prior to renal complications), treatment duration 0 months): 5.7 ± 0.4 mU/hour
URINARY N-ACETYL-β-D-GLUCOSAMINIDASE ACTIVITY ([2]; Zucker fatty rats, 50 μmol/kg of diet from age 6-7 weeks (prior to renal complications), treatment duration 1 month): 7.5 ± 0.7 mU/hour
URINARY N-ACETYL-β-D-GLUCOSAMINIDASE ACTIVITY ([2]; Zucker fatty rats, 50 μmol/kg of diet from age 6-7 weeks (prior to renal complications), treatment duration 2 months): 3.8 ± 1.1 mU/hour
URINARY N-ACETYL-β-D-GLUCOSAMINIDASE ACTIVITY ([2]; Zucker fatty rats, 50 μmol/kg of diet from age 6-7 weeks (prior to renal complications), treatment duration 3 months): 4.5 ± 0.9 mU/hour
URINARY N-ACETYL-β-D-GLUCOSAMINIDASE ACTIVITY ([2]; Zucker fatty rats, 50 μmol/kg of diet from age 6-7 weeks (prior to renal complications), treatment duration 4 months): 5.1 ± 1.2 mU/hour
URINARY N-ACETYL-β-D-GLUCOSAMINIDASE ACTIVITY ([2]; Zucker fatty rats, 50 μmol/kg of diet from age 6-7 weeks (prior to renal complications), treatment duration 5 months): 6.5 ± 0.7 mU/hour
URINARY N-ACETYL-β-D-GLUCOSAMINIDASE ACTIVITY ([2]; Zucker fatty rats, 50 μmol/kg of diet from age 6-7 weeks (prior to renal complications), treatment duration 6 months): 6.5 ± 1.1 mU/hour
URINARY N-ACETYL-β-D-GLUCOSAMINIDASE ACTIVITY ([2]; Zucker fatty rats, 50 μmol/kg of diet from age 6-7 weeks (prior to renal complications), treatment duration 7 months): 8.9 ± 0.8 mU/hour
URINARY N-ACETYL-β-D-GLUCOSAMINIDASE ACTIVITY ([2]; Zucker fatty rats, 50 μmol/kg of diet from age 6-7 weeks (prior to renal complications), treatment duration 8 months): 6.2 ± 1.2 mU/hour
URINARY N-ACETYL-β-D-GLUCOSAMINIDASE ACTIVITY ([2]; Zucker fatty rats, 50 μmol/kg of diet from age 6-7 weeks (prior to renal complications), treatment duration 9 months): 9.1 ± 1.2 mU/hour
URINARY N-ACETYL-β-D-GLUCOSAMINIDASE ACTIVITY ([2]; Zucker fatty rats, 50 μmol/kg of diet started once renal complications established (after 4 months), treatment duration 0 months): 7.6 ± 0.7 mU/hour
URINARY N-ACETYL-β-D-GLUCOSAMINIDASE ACTIVITY ([2]; Zucker fatty rats, 50 μmol/kg of diet started once renal complications established (after 4 months), treatment duration 1 month): 7.6 ± 0.7 mU/hour
URINARY N-ACETYL-β-D-GLUCOSAMINIDASE ACTIVITY ([2]; Zucker fatty rats, 50 μmol/kg of diet started once renal complications established (after 4 months), treatment duration 2 months): 5.7 ± 0.9 mU/hour
URINARY N-ACETYL-β-D-GLUCOSAMINIDASE ACTIVITY ([2]; Zucker fatty rats, 50 μmol/kg of diet started once renal complications established (after 4 months), treatment duration 3 months): 7.4 ± 0.9 mU/hour
URINARY N-ACETYL-β-D-GLUCOSAMINIDASE ACTIVITY ([2]; Zucker fatty rats, 50 μmol/kg of diet started once renal complications established (after 4 months), treatment duration 4 months): 5.4 ± 1.0 mU/hour
URINARY N-ACETYL-β-D-GLUCOSAMINIDASE ACTIVITY ([2]; Zucker fatty rats, 50 μmol/kg of diet started once renal complications established (after 4 months), treatment duration 5 months): 8.0 ± 1.1 mU/hour
URINARY N-ACETYL-β-D-GLUCOSAMINIDASE ACTIVITY ([2]; Zucker fatty rats, 50 μmol/kg of diet started once renal complications established (after 4 months), treatment duration −1 month (before start of drug)): 7.8 ± 0.6 mU/hour
URINARY N-ACETYL-β-D-GLUCOSAMINIDASE ACTIVITY ([2]; Zucker fatty rats, 50 μmol/kg of diet started once renal complications established (after 4 months), treatment duration −2 months (before start of drug)): 9.5 ± 1.1 mU/hour
URINARY N-ACETYL-β-D-GLUCOSAMINIDASE ACTIVITY ([2]; Zucker fatty rats, 50 μmol/kg of diet started once renal complications established (after 4 months), treatment duration −3 months (before start of drug)): 8.3 ± 0.5 mU/hour
URINARY N-ACETYL-β-D-GLUCOSAMINIDASE ACTIVITY ([2]; Zucker fatty rats, 50 μmol/kg of diet started once renal complications established (after 4 months), treatment duration −4 months (before start of drug)): 5.4 ± 0.2 mU/hour
urinary NAG activity ([2]; Zucker fatty rats, drug treatment commenced after proteinuria had become established): prevented from rising further
